This is an account of results in patent publication US9963496B2, “Stable glucagon analogues and use for treatment of hypoglycaemia” (Novo Nordisk A/S, priority 2014, dated 2018).

This data set in a line: physchem. In kind it is physicochemical. The following applies: pH 7.5. Put shortly: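 Peptide at 250 μM in 10 mM HEPES pH 7.5 with 1 μM Thioflavin T, incubated at 37° C with 960 rpm orbital shaking. ThT fluorescence (ex 444/em 485 nm) read every 20 min; lag-time (t0−2τ) and kapp (1/τ) from curve fit. Recovery is post-assay supernatant peptide by RP-HPLC as % of initial.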

SMILES strings stand for the structures. *1 amine or outer side, *2 acyl side, *3 side chain or, on linkers, in order; H or OH if unused. Where a SMILES comes first, the peptide text is derived from it. Side-chain parts run from the residue outwards. [ ]: non-standard residue; d: D form. The star is where a group is joined. γGlu = O=C(O)[C@H](CCC(=O)[*:2])N[*:1]; Desaminohistidyl = O=C(CCc1c[nH]cn1)*; Aib = CC(C)(N)C(=O)O

Take `CC(=O)N[C@@H](CCC(=O)N[C@@H](CCC(=O)N[C@@H](CCC(=O)N[C@@H](CCC(=O)NCCCC[C@H](NC(=O)[C@@H](NC(=O)[C@H](Cc1ccccc1)NC(=O)[C@H](CC(=O)O)NC(=O)[C@H](CCC(N)=O)NC(=O)[C@H](C)NC(=O)[C@H](CCCNC(=N)N)NC(=O)[C@H](CCCNC(=N)N)NC(=O)[C@H](CC(C)C)NC(=O)[C@H](CC(=O)O)NC(=O)[C@H](CC(C)C)NC(=O)[C@H](Cc1ccc(O)cc1)NC(=O)[C@H](CCCCN)NC(=O)[C@H](CO)NC(=O)[C@H](Cc1ccc(O)cc1)NC(=O)[C@H](CC(=O)O)NC(=O)[C@H](CO)NC(=O)[C@@H](NC(=O)[C@H](Cc1ccccc1)NC(=O)[C@@H](NC(=O)CNC(=O)[C@H](Cc1c[nH]cn1)NC(=O)C(C)(C)NC(=O)CCc1c[nH]cn1)[C@@H](C)O)[C@@H](C)O)C(C)C)C(=O)N[C@@H](Cc1c[nH]c2ccccc12)C(=O)N[C@@H](CC(C)C)C(=O)N[C@@H](CC(C)C)C(=O)N[C@@H](CO)C(=O)N[C@H](C(=O)O)[C@@H](C)O)C(=O)O)C(=O)O)C(=O)O)C(=O)O` [Example 1, N^ϵ24-[(4S)-4-[[(4S)-4-[[(4S)-4-[[(4S)-4-acetamido-4-carboxybutanoyl]amino]-4-carboxybutanoyl]amino]-4-carboxybutanoyl]amino]-4-carboxybutanoyl]-[Imp1, Aib2, His3, Leu16, Lys24, Leu27, Ser28]-Glucagon] (Desaminohistidyl-[Aib]HGTFTSDYSKYLDLRRAQDFVK([γGlu-γGlu-γGlu-γGlu-Ac])WLLST-OH): the recovery at 250 μM worked out at 101%.
Turning to `CC(=O)N[C@@H](CCC(=O)N[C@@H](CCC(=O)N[C@@H](CCC(=O)N[C@@H](CCC(=O)NCCCC[C@H](NC(=O)[C@@H](NC(=O)[C@H](Cc1ccccc1)NC(=O)[C@H](CC(=O)O)NC(=O)[C@H](CCC(N)=O)NC(=O)[C@H](C)NC(=O)[C@H](CCCNC(=N)N)NC(=O)[C@H](CCCNC(=N)N)NC(=O)[C@@H](NC(=O)[C@H](CC(=O)O)NC(=O)[C@H](CC(C)C)NC(=O)[C@H](Cc1ccc(O)cc1)NC(=O)[C@H](CCCCN)NC(=O)[C@H](CO)NC(=O)[C@H](Cc1ccc(O)cc1)NC(=O)[C@H](CC(=O)O)NC(=O)[C@H](CO)NC(=O)[C@@H](NC(=O)[C@H](Cc1ccccc1)NC(=O)[C@@H](NC(=O)CNC(=O)[C@H](Cc1c[nH]cn1)NC(=O)C(C)(C)NC(=O)CCc1c[nH]cn1)[C@@H](C)O)[C@@H](C)O)C(C)C)C(C)C)C(=O)N[C@@H](Cc1c[nH]c2ccccc12)C(=O)N[C@@H](CC(C)C)C(=O)N[C@@H](CC(C)C)C(=O)N[C@@H](CO)C(=O)N[C@H](C(=O)O)[C@@H](C)O)C(=O)O)C(=O)O)C(=O)O)C(=O)O` [Example 10, N^ϵ24-[(4S)-4-[[(4S)-4-[[(4S)-4-[[(4S)-4-acetamido-4-carboxybutanoyl]amino]-4-carboxybutanoyl]amino]-4-carboxybutanoyl]amino]-4-carboxybutanoyl]-[Imp1, Aib2, His3, Val16, Lys24, Leu27, Ser28]-Glucagon] (Desaminohistidyl-[Aib]HGTFTSDYSKYLDVRRAQDFVK([γGlu-γGlu-γGlu-γGlu-Ac])WLLST-OH), the recovery at 250 μM turned out to be 100%.
As for `CC(=O)N[C@@H](CCC(=O)N[C@@H](CCC(=O)N[C@@H](CCC(=O)N[C@@H](CCC(=O)NCCCC[C@H](NC(=O)[C@H](CC(C)C)NC(=O)[C@H](CC(C)C)NC(=O)[C@H](Cc1c[nH]c2ccccc12)NC(=O)[C@H](C)NC(=O)[C@@H](NC(=O)[C@H](Cc1ccccc1)NC(=O)[C@H](CC(=O)O)NC(=O)[C@H](CCC(N)=O)NC(=O)[C@H](C)NC(=O)[C@H](CCCNC(=N)N)NC(=O)[C@H](CCCNC(=N)N)NC(=O)[C@H](CO)NC(=O)[C@H](CCC(=O)O)NC(=O)[C@H](CC(C)C)NC(=O)[C@H](Cc1ccc(O)cc1)NC(=O)[C@H](CCCCN)NC(=O)[C@H](CO)NC(=O)[C@H](Cc1ccc(O)cc1)NC(=O)[C@H](CC(=O)O)NC(=O)[C@H](CO)NC(=O)[C@@H](NC(=O)[C@H](Cc1ccccc1)NC(=O)[C@@H](NC(=O)CNC(=O)[C@H](Cc1c[nH]cn1)NC(=O)C(C)(C)NC(=O)CCc1c[nH]cn1)[C@@H](C)O)[C@@H](C)O)C(C)C)C(=O)N[C@H](C(=O)O)[C@@H](C)O)C(=O)O)C(=O)O)C(=O)O)C(=O)O` [Example 4, N^ϵ28-[(4S)-4-[[(4S)-4-[[(4S)-4-[[(4S)-4-acetamido-4-carboxybutanoyl]amino]-4-carboxybutanoyl]amino]-4-carboxybutanoyl]amino]-4-carboxybutanoyl]-[Imp1, Aib2, His3, Glu15, Ala24, Leu27, Lys28]-Glucagon] (Desaminohistidyl-[Aib]HGTFTSDYSKYLESRRAQDFVAWLLK([γGlu-γGlu-γGlu-γGlu-Ac])T-OH), the recovery at 250 μM stood at 100%.
Molecule `CC(=O)N[C@@H](CCC(=O)N[C@@H](CCC(=O)N[C@@H](CCC(=O)N[C@@H](CCC(=O)NCCCC[C@H](NC(=O)[C@@H](NC(=O)[C@H](Cc1ccccc1)NC(=O)[C@H](CCC(=O)O)NC(=O)[C@H](CCC(N)=O)NC(=O)[C@H](C)NC(=O)[C@H](CCCNC(=N)N)NC(=O)[C@H](CCCNC(=N)N)NC(=O)[C@H](CC(C)C)NC(=O)[C@H](CC(=O)O)NC(=O)[C@H](CC(C)C)NC(=O)[C@H](Cc1ccc(O)cc1)NC(=O)[C@H](CCCCN)NC(=O)[C@H](CO)NC(=O)[C@H](Cc1ccc(O)cc1)NC(=O)[C@H](CC(=O)O)NC(=O)[C@H](CO)NC(=O)[C@@H](NC(=O)[C@H](Cc1ccccc1)NC(=O)[C@@H](NC(=O)CNC(=O)[C@H](Cc1c[nH]cn1)NC(=O)[C@H](CO)NC(=O)CCc1c[nH]cn1)[C@@H](C)O)[C@@H](C)O)C(C)C)C(=O)N[C@@H](Cc1c[nH]c2ccccc12)C(=O)N[C@@H](CC(C)C)C(=O)N[C@@H](CC(C)C)C(=O)N[C@@H](CO)C(=O)N[C@H](C(=O)O)[C@@H](C)O)C(=O)O)C(=O)O)C(=O)O)C(=O)O` [Example 8, N^ϵ24-[(4S)-4-[[(4S)-4-[[(4S)-4-[[(4S)-4-acetamido-4-carboxybutanoyl]amino]-4-carboxybutanoyl]amino]-4-carboxybutanoyl]amino]-4-carboxybutanoyl]-[Imp1, His3, Leu16, Glu21, Lys24, Leu27, Ser28]-Glucagon] (Desaminohistidyl-SHGTFTSDYSKYLDLRRAQEFVK([γGlu-γGlu-γGlu-γGlu-Ac])WLLST-OH) had a recovery at 250 μM of 103%.
